Experimental data as given in article PMC3775947 (Clinical lymphoma, myeloma & leukemia, 2013).
Like-named read-outs stand apart in the source and are kept apart here.

Experiments:
[1] = human, in vivo
[2] = tested on: patients with AML; conditions: cited from earlier work; for Rates of response: LDAC or decitabine alone

| Structure (SMILES) | AUC0–8 ratio, Day 7:Day10, LDAC ([1]; 800 mg) | AUC0–8 ratio, Day 7:Day10, LDAC ([1]; 1000 mg) | AUC0–8 ratio, Day 7:Day10, LDAC ([1]; 1200 mg) | Time of peak plasma concentrations (Cmax) post administration ([1]; sc, 20 mg) [h] | t½, monophasic elimination ([1]; sc, 20 mg) [h] | Infection frequency ([2]; LDAC monotherapy) [%] | Rates of response [2] [%] |
| --- | --- | --- | --- | --- | --- | --- | --- |
| Nc1ccn([C@@H]2O[C@H](CO)[C@@H](O)[C@@H]2O)c(=O)n1 [LDAC, cytosine arabinoside] | 1.1 (14.6) ng.h/mL | 1.2 (24.2) ng.h/mL | 0.79 (105.7) ng.h/mL | 0.25 to 1 | 1 to 2 | 45 | ~20 |
| Nc1ncn([C@H]2C[C@H](O)[C@@H](CO)O2)c(=O)n1 [decitabine] |  |  |  |  |  |  | ~20 |
